Assay results: patent US10201523B2, “Use of wilforlide A for overcoming chemotherapy resistance” (WESTERN UNIVERSITY OF HEALTH SCIENCES, priority 2013, dated 2019)
Where “and” joins values, the source holds several entries; their conditions need not be identical. Equal values may be shown once.

System: Bt474-TxR
Experiment: SRB cell viability assay, lapatinib with/without wilforlide A pretreatment
Assay type: cell-based
[1] = Lapatinib 0.067 μM, 72 h, no wilforlide A pretreatment, Table 25
[2] = Lapatinib 0.2 μM, 72 h, pretreated with 25 μg/ml wilforlide A for 2 h, Table 26
[3] = Lapatinib 0.67 μM, 72 h, no wilforlide A pretreatment, Table 27
[4] = Lapatinib 0.67 μM, 72 h, pretreated with 25 μg/ml wilforlide A for 2 h, Table 26
[5] = Lapatinib 2.0 μM, 72 h, no wilforlide A pretreatment, Table 25
[6] = Lapatinib 2.0 μM, 72 h, no wilforlide A pretreatment, Table 27
[7] = Lapatinib 2.0 μM, 72 h, pretreated with 25 μg/ml wilforlide A for 2 h, Table 26
[8] = Lapatinib 6.7 μM, 72 h, no wilforlide A pretreatment, Table 25

CS(=O)(=O)CCNCc1ccc(-c2ccc3ncnc(Nc4ccc(OCc5cccc(F)c5)c(Cl)c4)c3c2)o1 [lapatinib]
viability at 0.001 µM (72 h, Bt474-TxR, wilforlide A 2.5 μg/ml pre-Tx, lapatinib 0.001 μM 72 h): 100% | viability at 0.01 µM (72 h, Bt474-TxR, wilforlide A 2.5 μg/ml pre-Tx, lapatinib 0.01 μM 72 h): 103% | viability at 0.067 µM (72 h, Bt474-TxR, wilforlide A 2.5 μg/ml pre-Tx, lapatinib 0.067 μM 72 h): 96.1% | viability at 0.2 µM (72 h, Bt474-TxR, wilforlide A 2.5 μg/ml pre-Tx, lapatinib 0.2 μM 72 h): 84.8% | viability at 0.67 µM (72 h, Bt474-TxR, wilforlide A 2.5 μg/ml pre-Tx, lapatinib 0.67 μM 72 h): 76% | viability at 2 µM (72 h, Bt474-TxR, wilforlide A 2.5 μg/ml pre-Tx, lapatinib 2.0 μM 72 h): 67.4% | viability at 6.7 µM (72 h, Bt474-TxR, wilforlide A 2.5 μg/ml pre-Tx, lapatinib 6.7 μM 72 h): 70.2% | viability at 20 µM (72 h, Bt474-TxR, wilforlide A 2.5 μg/ml pre-Tx, lapatinib 20 μM 72 h): 60.9% | mean A (Bt474-TxR, wilforlide A 2.5 μg/ml pre-Tx, lapatinib 0.001 μM 72 h): 1.260 | A at 565 nm (Bt474-TxR, wilforlide A 2.5 μg/ml pre-Tx, lapatinib 0.001 μM 72 h, background = 0.045): 1.301 and 1.370 | mean A (Bt474-TxR, wilforlide A 2.5 μg/ml pre-Tx, lapatinib 0.01 μM 72 h): 1.293 | A at 565 nm (Bt474-TxR, wilforlide A 2.5 μg/ml pre-Tx, lapatinib 0.01 μM 72 h, background = 0.045): 1.309 and 1.368 | A at 565 nm (Bt474-TxR, wilforlide A 2.5 μg/ml pre-Tx, lapatinib 0.067 μM 72 h, background = 0.045): 1.297 | mean A (Bt474-TxR, wilforlide A 2.5 μg/ml pre-Tx, lapatinib 0.67 μM 72 h): 0.957 | A at 565 nm (Bt474-TxR, wilforlide A 2.5 μg/ml pre-Tx, lapatinib 0.67 μM 72 h, background = 0.045): 0.898 and 0.975 | mean A (Bt474-TxR, wilforlide A 2.5 μg/ml pre-Tx, lapatinib 2.0 μM 72 h): 0.849 | A at 565 nm (Bt474-TxR, wilforlide A 2.5 μg/ml pre-Tx, lapatinib 2.0 μM 72 h, background = 0.045): 0.895 and 0.791 and 0.861 | mean A (Bt474-TxR, wilforlide A 2.5 μg/ml pre-Tx, lapatinib 6.7 μM 72 h): 0.884 | A at 565 nm (Bt474-TxR, wilforlide A 2.5 μg/ml pre-Tx, lapatinib 6.7 μM 72 h, background = 0.045): 0.947 and 0.814 and 0.893 | mean A (Bt474-TxR, wilforlide A 2.5 μg/ml pre-Tx, lapatinib 20 μM 72 h): 0.768 | A at 565 nm (Bt474-TxR, wilforlide A 2.5 μg/ml pre-Tx, lapatinib 20 μM 72 h, background = 0.045): 0.798 and 0.689 and 0.817 | viability at 0.001 µM (Lapatinib 0.001 μM, 72 h, no wilforlide A pretreatment, Table 25): 100% | A at 565 nm (Lapatinib 0.001 μM, 72 h, no wilforlide A pretreatment, Table 25, background = 0.045): 1.272 and 1.341 | viability at 0.001 µM (Lapatinib 0.001 μM, 72 h, no wilforlide A pretreatment, Table 27): 100% | viability at 0.001 µM (Lapatinib 0.001 μM, 72 h, pretreated with 25 μg/ml wilforlide A for 2 h, Table 26): 100% | mean A (Lapatinib 0.01 μM, 72 h, no wilforlide A pretreatment, Table 25): 1.338 | A at 565 nm (Lapatinib 0.01 μM, 72 h, no wilforlide A pretreatment, Table 25, background = 0.045): 1.352 and 1.344 and 1.318 | viability at 0.01 µM (Lapatinib 0.01 μM, 72 h, no wilforlide A pretreatment, Table 27): 99.5% | viability at 0.01 µM (Lapatinib 0.01 μM, 72 h, pretreated with 25 μg/ml wilforlide A for 2 h, Table 26): 96.2% | mean A [1]: 1.304 | viability at 0.067 µM [1]: 105% | A at 565 nm (Lapatinib 0.067 μM, 72 h, no wilforlide A pretreatment, Table 25, background = 0.045): 1.320 and 1.343 | viability at 0.067 µM (Lapatinib 0.067 μM, 72 h, no wilforlide A pretreatment, Table 27): 98.7% | viability at 0.067 µM (Lapatinib 0.067 μM, 72 h, pretreated with 25 μg/ml wilforlide A for 2 h, Table 26): 94.6% | viability at 0.2 µM (Lapatinib 0.2 μM, 72 h, no wilforlide A pretreatment, Table 25): 92.8% | viability at 0.2 µM (Lapatinib 0.2 μM, 72 h, no wilforlide A pretreatment, Table 27): 94% | mean A [2]: 0.994 | viability at 0.2 µM [2]: 86.6% | A at 565 nm (Lapatinib 0.2 μM, 72 h, pretreated with 25 μg/ml wilforlide A for 2 h, Table 26, background = 0.047): 0.963 | viability at 0.67 µM (Lapatinib 0.67 μM, 72 h, no wilforlide A pretreatment, Table 25): 87% | mean A [3]: 0.994 | viability at 0.67 µM [3]: 85% | A at 565 nm (Lapatinib 0.67 μM, 72 h, no wilforlide A pretreatment, Table 27, background = 0.047): 0.955 | mean A [4]: 0.872 | viability at 0.67 µM [4]: 76% | A at 565 nm (Lapatinib 0.67 μM, 72 h, pretreated with 25 μg/ml wilforlide A for 2 h, Table 26, background = 0.047): 0.813 and 0.937 and 0.865 | mean A [5]: 0.987 | viability at 2 µM [5]: 79.1% | A at 565 nm (Lapatinib 2.0 μM, 72 h, no wilforlide A pretreatment, Table 25, background = 0.045): 0.951 | mean A [6]: 0.831 | viability at 2 µM [6]: 71% | A at 565 nm (Lapatinib 2.0 μM, 72 h, no wilforlide A pretreatment, Table 27, background = 0.047): 0.887 and 0.809 and 0.797 | mean A [7]: 0.832 | viability at 2 µM [7]: 72.5% | A at 565 nm (Lapatinib 2.0 μM, 72 h, pretreated with 25 μg/ml wilforlide A for 2 h, Table 26, background = 0.047): 0.876 and 0.831 and 0.789 | mean A [8]: 0.925 | viability at 6.7 µM [8]: 74.2% | A at 565 nm (Lapatinib 6.7 μM, 72 h, no wilforlide A pretreatment, Table 25, background = 0.045): 0.926 and 0.823 | mean A (Lapatinib 6.7 μM, 72 h, no wilforlide A pretreatment, Table 27): 0.795
